Measured values from patent US11572590B2, “Methods for evaluating tumor cell spheroids using 3D microfluidic cell culture device” (Dana-Farber Cancer Institute, Inc., priority 2017, dated 2023).
Like-named read-outs stand apart in the source and are kept apart here.

How the values were obtained:
Assay in all cases: SelectScreen Kinase Profiling, single point inhibition and IC50 for off-target kinases
Format in all cases: biochemical
off-target kinases [1] = target: T1, off-target kinases (Homo sapiens, UniProt P35626); settings: ADRBK2 (GRK3), ZLYTE, ATP Km app
T1 sequence (P35626 1-688): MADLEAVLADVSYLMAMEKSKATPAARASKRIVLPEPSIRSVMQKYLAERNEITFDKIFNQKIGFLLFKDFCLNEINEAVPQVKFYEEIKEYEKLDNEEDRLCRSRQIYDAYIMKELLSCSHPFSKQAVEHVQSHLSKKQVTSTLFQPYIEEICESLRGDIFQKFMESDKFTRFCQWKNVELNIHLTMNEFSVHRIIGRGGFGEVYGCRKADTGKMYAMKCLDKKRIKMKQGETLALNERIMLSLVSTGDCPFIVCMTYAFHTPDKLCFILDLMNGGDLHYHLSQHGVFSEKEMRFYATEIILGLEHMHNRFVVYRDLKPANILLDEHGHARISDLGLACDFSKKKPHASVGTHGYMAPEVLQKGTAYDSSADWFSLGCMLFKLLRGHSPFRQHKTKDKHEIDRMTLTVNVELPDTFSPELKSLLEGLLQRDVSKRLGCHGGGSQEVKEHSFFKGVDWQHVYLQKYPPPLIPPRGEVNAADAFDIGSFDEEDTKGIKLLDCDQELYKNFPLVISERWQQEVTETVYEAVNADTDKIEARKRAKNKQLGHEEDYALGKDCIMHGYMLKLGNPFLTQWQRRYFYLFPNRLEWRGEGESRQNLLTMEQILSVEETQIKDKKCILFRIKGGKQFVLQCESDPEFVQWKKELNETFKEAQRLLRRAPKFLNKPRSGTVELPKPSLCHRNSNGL

off-target kinases [2] = target: off-target kinases (Homo sapiens, UniProt P08069); settings: IGF1R, ZLYTE, ATP Km app
off-target kinases [3] = target: off-target kinases (Homo sapiens, UniProt O96013); settings: PAK4, ATP Km app, ZLYTE
off-target kinases [4] = target: T2, off-target kinases (Homo sapiens, UniProt P54760); settings: EPHB4, ZLYTE, ATP Km app
T2 sequence (P54760 16-987): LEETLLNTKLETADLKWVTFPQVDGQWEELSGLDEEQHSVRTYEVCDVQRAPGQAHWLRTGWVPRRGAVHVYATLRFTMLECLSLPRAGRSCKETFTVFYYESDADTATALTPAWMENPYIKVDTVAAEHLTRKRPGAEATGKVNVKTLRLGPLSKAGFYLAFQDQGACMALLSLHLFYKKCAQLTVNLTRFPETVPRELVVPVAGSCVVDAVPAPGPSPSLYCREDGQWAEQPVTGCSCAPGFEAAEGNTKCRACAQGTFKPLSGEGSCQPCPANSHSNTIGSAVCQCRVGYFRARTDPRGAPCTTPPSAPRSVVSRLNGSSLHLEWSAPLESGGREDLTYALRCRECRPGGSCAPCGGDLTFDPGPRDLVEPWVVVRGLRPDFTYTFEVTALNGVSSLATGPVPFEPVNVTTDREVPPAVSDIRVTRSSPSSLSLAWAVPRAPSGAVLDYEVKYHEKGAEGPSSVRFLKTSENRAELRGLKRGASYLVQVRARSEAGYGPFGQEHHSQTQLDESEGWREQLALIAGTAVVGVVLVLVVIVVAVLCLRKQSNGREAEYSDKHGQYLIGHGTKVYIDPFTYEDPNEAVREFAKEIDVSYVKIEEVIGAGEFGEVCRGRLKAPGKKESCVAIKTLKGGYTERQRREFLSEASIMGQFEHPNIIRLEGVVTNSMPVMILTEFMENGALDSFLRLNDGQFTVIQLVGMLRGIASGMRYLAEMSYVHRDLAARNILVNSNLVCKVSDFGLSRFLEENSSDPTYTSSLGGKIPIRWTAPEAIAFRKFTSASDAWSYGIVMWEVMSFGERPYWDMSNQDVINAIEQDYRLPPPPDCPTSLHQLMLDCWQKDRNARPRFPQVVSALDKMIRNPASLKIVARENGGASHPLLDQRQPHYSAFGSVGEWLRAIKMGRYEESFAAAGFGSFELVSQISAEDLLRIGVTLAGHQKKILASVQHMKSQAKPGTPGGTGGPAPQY

off-target kinases (Homo sapiens, UniProt O96013), sequence (O96013 whole entry): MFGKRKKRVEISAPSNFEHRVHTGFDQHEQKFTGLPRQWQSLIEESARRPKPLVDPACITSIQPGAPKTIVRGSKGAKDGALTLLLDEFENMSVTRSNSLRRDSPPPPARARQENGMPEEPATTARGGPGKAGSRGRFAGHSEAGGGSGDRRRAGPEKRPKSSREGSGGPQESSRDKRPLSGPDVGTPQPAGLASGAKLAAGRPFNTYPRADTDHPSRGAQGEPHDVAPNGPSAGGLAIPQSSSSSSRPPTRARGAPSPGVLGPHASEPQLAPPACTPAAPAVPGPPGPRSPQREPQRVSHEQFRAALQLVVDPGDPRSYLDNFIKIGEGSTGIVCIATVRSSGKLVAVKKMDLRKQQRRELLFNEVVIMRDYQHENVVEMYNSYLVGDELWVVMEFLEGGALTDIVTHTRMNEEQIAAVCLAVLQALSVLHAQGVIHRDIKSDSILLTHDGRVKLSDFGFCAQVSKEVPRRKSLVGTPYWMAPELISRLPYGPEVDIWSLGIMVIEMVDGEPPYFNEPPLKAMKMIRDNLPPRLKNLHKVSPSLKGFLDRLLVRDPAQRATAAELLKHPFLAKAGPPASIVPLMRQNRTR
off-target kinases (Homo sapiens, UniProt P08069), sequence (P08069 31-1367): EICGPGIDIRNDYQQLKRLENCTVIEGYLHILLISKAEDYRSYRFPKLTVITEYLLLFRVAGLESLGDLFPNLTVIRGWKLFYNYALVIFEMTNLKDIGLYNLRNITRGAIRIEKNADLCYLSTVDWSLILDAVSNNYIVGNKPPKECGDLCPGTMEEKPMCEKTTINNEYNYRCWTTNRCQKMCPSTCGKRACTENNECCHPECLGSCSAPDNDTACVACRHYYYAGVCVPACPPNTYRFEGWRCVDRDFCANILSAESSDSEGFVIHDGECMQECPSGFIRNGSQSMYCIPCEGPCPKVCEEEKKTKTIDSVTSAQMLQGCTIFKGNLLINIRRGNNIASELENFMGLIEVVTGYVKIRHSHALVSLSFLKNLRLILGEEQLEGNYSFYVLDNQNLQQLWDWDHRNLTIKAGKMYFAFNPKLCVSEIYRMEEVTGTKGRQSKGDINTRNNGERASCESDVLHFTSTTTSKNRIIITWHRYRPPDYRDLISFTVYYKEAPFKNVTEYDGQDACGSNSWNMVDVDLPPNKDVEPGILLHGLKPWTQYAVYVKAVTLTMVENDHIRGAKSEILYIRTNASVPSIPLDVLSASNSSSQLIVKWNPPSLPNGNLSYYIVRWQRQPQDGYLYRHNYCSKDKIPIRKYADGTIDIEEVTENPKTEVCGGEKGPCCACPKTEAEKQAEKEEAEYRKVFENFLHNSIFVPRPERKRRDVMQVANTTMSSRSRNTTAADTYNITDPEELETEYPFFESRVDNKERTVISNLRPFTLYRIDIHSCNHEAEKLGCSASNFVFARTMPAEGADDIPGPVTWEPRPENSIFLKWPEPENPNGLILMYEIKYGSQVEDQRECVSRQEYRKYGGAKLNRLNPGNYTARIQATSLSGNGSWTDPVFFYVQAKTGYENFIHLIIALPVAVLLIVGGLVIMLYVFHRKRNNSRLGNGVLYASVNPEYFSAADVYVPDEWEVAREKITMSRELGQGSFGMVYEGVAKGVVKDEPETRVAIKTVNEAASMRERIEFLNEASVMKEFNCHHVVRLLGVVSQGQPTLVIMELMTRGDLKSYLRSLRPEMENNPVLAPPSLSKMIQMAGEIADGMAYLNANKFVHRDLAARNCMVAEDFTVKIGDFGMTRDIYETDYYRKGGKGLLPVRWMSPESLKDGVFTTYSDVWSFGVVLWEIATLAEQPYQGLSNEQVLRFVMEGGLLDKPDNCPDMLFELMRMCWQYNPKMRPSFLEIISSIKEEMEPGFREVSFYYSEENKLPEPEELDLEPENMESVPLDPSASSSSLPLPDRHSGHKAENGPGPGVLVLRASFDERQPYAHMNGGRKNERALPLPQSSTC

N#Cc1cc(-c2ncnc(Nc3ccc(N4CCN(C5COC5)CC4)cc3)n2)ccc1OC1CCOCC1 [Compound 1, 5-(4-((4-(4-(oxetan-3-yl)piperazin-1-yl)phenyl)amino)-1,3,5-triazin-2-yl)-2-((tetrahydro-2H-pyran-4-yl)oxy)benzonitrile]
inhibition (off-target kinases [1]; read-out: % Inhibition 1): 6% | inhibition (off-target kinases [1]; read-out: % Inhibition 2): 4% | inhibition (off-target kinases [1]; read-out: % Inhibition Avg): 5% | inhibition (off-target kinases [2]; read-out: % Inhibition 1): 1% | inhibition (off-target kinases [2]; read-out: % Inhibition 2): 2% | inhibition (off-target kinases [2]; read-out: % Inhibition Avg): 1% | inhibition (off-target kinases [3]; read-out: % Inhibition 1): 91% | inhibition (off-target kinases [3]; read-out: % Inhibition 2): 90% | inhibition (off-target kinases [3]; read-out: % Inhibition Avg): 90% | inhibition (off-target kinases [4]; read-out: % Inhibition 1): 15% | inhibition (off-target kinases [4]; read-out: % Inhibition 2): 14% | inhibition (off-target kinases [4]; read-out: % Inhibition Avg): 15%
